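The compound was tested at five concentrations on cells cultured in 96-well plates, with a 48-hour exposure period. GI50 = concentration required for 50% inhibition of growth.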 Calls of active or inactive are those of the source. Cut-off read from the data, not from the text of the source: active = GI50 up to about 1.1 µM and inactive = higher.
Columns and labels:
Assay in all cases: inhibition of tumour cell growth, NCI panel, 48 h
SNB-19 = test system: SNB-19
OVCAR-8 = test system: OVCAR-8
ACHN = test system: ACHN
SW-620 = test system: SW-620
A498 = test system: A498
UO-31 = test system: UO-31
NCI-H23 = test system: NCI-H23
A549 = test system: A549
HL-60 = test system: HL-60
NCI-H460 = test system: NCI-H460
RXF 393 = test system: RXF 393
UACC-257 = test system: UACC-257
HOP-62 = test system: HOP-62
Malme-3M = test system: Malme-3M
SF-295 = test system: SF-295
786-0 = test system: 786-0
KM12 = test system: KM12
HCC 2998 = test system: HCC 2998

Measured: GI50

O=c1[nH]c(=O)n(C2CC(O)C(CO)O2)cc1/C=C/Br (stereo not given)
inactive: SNB-19 > 100 µM | OVCAR-8 > 100 µM | ACHN > 100 µM | SW-620 > 100 µM | A498 > 100 µM | UO-31 > 100 µM | NCI-H23 > 100 µM | A549 > 100 µM | HL-60 > 100 µM | NCI-H460 > 100 µM | RXF 393 > 100 µM | UACC-257 > 100 µM | HOP-62 > 100 µM | Malme-3M > 100 µM | SF-295 > 100 µM | 786-0 > 100 µM | KM12 > 100 µM

O=C1CCC2(c3ccc(Cl)cc3)Nc3ncccc3N12 (stereo not given)
inactive: OVCAR-8 > 100 µM | HCC 2998 > 100 µM | ACHN > 100 µM | SW-620 > 100 µM | A498 > 100 µM | UO-31 > 100 µM | NCI-H23 > 100 µM | A549 > 100 µM | HL-60 > 100 µM | NCI-H460 > 100 µM | RXF 393 > 100 µM | UACC-257 > 100 µM | HOP-62 > 100 µM | Malme-3M > 100 µM | SF-295 > 100 µM | 786-0 > 100 µM | KM12 > 100 µM

CC(=O)N1CCC2(c3ccccc3N(C(C)=O)C2c2ccc(O)cc2)C1C(=O)O (stereo not given)
inactive: SNB-19 > 100 µM | OVCAR-8 > 100 µM | HCC 2998 > 100 µM | ACHN > 100 µM | SW-620 > 100 µM | A498 > 100 µM | UO-31 > 100 µM | NCI-H23 > 100 µM | A549 > 100 µM | HL-60 > 100 µM | RXF 393 > 100 µM | UACC-257 > 100 µM | HOP-62 > 100 µM | Malme-3M > 100 µM | SF-295 > 100 µM | 786-0 > 100 µM | KM12 > 100 µM

CC(SC(=O)Nc1ccc(/N=N/c2ccccc2)cc1)C(=O)O (stereo not given)
inactive: SNB-19 > 100 µM | OVCAR-8 57 µM | HCC 2998 > 100 µM | ACHN 57.9 µM | SW-620 > 100 µM | A498 > 100 µM | UO-31 68.7 µM | NCI-H23 > 100 µM | A549 56.4 µM | HL-60 38.6 µM | NCI-H460 > 100 µM | RXF 393 73.5 µM | UACC-257 98.6 µM | HOP-62 > 100 µM | SF-295 56.4 µM | 786-0 79.8 µM | KM12 54.3 µM

CC(C)(C)OC1=C(OC(C)(C)C)C(O)(c2ccccc2)C1=O (stereo not given)
inactive: SNB-19 > 100 µM | OVCAR-8 > 100 µM | HCC 2998 > 100 µM | ACHN > 100 µM | SW-620 > 100 µM | A498 > 100 µM | UO-31 > 100 µM | NCI-H23 > 100 µM | A549 > 100 µM | HL-60 > 100 µM | NCI-H460 > 100 µM | RXF 393 > 100 µM | Malme-3M > 100 µM | SF-295 > 100 µM | 786-0 > 100 µM | KM12 > 100 µM

Fc1ccccc1C1SCc2nc3ccccc3n21 (stereo not given)
inactive: SNB-19 86.7 µM | OVCAR-8 49.4 µM | HCC 2998 75.2 µM | ACHN 38.1 µM | SW-620 > 100 µM | A498 9.62 µM | UO-31 24.8 µM | NCI-H23 33.2 µM | A549 36.5 µM | HL-60 11.9 µM | NCI-H460 47.9 µM | RXF 393 92 µM | UACC-257 33.7 µM | Malme-3M 55.3 µM | SF-295 41.8 µM | 786-0 > 100 µM | KM12 89.9 µM

CC(=O)OC1(C#N)CC2OC1C1C2N1C(=O)OC(C)(C)C (stereo not given)
inactive: SNB-19 > 100 µM | OVCAR-8 > 100 µM | HCC 2998 > 100 µM | ACHN > 100 µM | SW-620 > 100 µM | A498 > 100 µM | UO-31 > 100 µM | NCI-H23 > 100 µM | A549 > 100 µM | HL-60 > 100 µM | NCI-H460 > 100 µM | RXF 393 > 100 µM | HOP-62 > 100 µM | Malme-3M > 100 µM | 786-0 > 100 µM

N#COc1ccc(Oc2ccccc2)cc1
inactive: SNB-19 > 100 µM | OVCAR-8 49.5 µM | HCC 2998 55.5 µM | ACHN 29.2 µM | A498 > 100 µM | UO-31 50.9 µM | NCI-H23 39.4 µM | A549 73.3 µM | HL-60 26.3 µM | NCI-H460 43.2 µM | RXF 393 > 100 µM | UACC-257 > 100 µM | HOP-62 55.7 µM | Malme-3M > 100 µM | SF-295 59.8 µM | 786-0 34.6 µM | KM12 > 100 µM

CSc1c(C)c(C)nn1-c1ccccc1
inactive: SNB-19 > 100 µM | OVCAR-8 > 100 µM | HCC 2998 > 100 µM | ACHN > 100 µM | SW-620 > 100 µM | A498 > 100 µM | UO-31 > 100 µM | NCI-H23 > 100 µM | A549 > 100 µM | HL-60 81.1 µM | NCI-H460 > 100 µM | RXF 393 > 100 µM | UACC-257 > 100 µM | Malme-3M > 100 µM | SF-295 > 100 µM | 786-0 > 100 µM | KM12 > 100 µM

— ChEMBL document CHEMBL1201862, “PubChem BioAssay data set” (2004)
